According to the NIST ThermoML archive (doi:10.1021/je1000878):
± gives the expanded uncertainty stated by the source.

Assay: cn = amount concentration of the nth substance listed, in mol/dm3
Conditions: 101.3 kPa, Liquid, c1 = 2

Compound | viscosity (298.15 K) [mPa·s] | viscosity (303.15 K) [mPa·s] | viscosity (308.15 K) [mPa·s] | viscosity (313.15 K) [mPa·s] | viscosity (318.15 K) [mPa·s] | viscosity (323.15 K) [mPa·s] | viscosity (328.15 K) [mPa·s]
[Cl-].[Na+] [sodium chloride] + O | 1.085 ± 0.014 | 0.9761 ± 0.013 | 0.8816 ± 0.012 | 0.8069 ± 0.011 | 0.7426 ± 0.01 | 0.676 ± 0.0095 | 0.6257 ± 0.0088
O=[N+]([O-])[O-].[Na+] [sodium nitrate] + O | 1.036 ± 0.014 | 0.9367 ± 0.013 | 0.8519 ± 0.012 | 0.7777 ± 0.011 | 0.7167 ± 0.0099 | 0.6559 ± 0.0092 | 0.6043 ± 0.0086
